Assay [1] has as its target T1, Orai1 (Homo sapiens, UniProt Q13586+Q96D31). Description: fura-2 Ca2+ add-back. The format is cell-based.
Assay [2] addresses T1, Orai1. The experiment in a line: fura-2 Ca2+ add-back. Format: cell-based. The source holds these as a separate data set.

Our source for the IC50 values is paper PMC4314399 (Cell calcium, 2014).

Read-outs that look alike come from different tables or passages of the source.

T1 sequence (Q96D31 whole entry): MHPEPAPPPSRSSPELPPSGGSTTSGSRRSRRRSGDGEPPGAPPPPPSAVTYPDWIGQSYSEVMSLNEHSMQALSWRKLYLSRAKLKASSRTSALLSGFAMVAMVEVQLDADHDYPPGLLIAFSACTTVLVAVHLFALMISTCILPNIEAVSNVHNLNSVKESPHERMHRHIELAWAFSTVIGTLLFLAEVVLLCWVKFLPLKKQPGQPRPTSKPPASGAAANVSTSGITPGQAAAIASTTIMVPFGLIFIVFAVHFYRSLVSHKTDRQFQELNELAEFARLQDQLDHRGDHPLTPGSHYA
T1 sequence (Q13586 23-685): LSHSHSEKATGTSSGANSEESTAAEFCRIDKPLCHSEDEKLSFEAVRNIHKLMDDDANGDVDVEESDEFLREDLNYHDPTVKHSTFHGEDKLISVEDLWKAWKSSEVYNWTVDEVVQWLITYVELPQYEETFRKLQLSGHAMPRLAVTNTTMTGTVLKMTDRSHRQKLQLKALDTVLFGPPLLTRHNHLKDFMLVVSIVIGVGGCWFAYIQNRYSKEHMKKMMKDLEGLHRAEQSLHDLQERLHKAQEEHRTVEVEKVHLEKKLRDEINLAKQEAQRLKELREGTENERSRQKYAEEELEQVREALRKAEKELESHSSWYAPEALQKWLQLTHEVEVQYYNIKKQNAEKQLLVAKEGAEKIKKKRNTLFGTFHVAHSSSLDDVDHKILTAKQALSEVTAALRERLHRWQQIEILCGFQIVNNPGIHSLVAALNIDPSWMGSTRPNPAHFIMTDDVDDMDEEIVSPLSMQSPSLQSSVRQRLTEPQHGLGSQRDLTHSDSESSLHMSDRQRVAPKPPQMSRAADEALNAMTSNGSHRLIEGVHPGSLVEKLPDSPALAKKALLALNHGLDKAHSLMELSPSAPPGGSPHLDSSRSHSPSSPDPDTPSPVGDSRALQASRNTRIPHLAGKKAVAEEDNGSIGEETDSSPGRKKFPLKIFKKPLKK

For DPB162-AE, the IC50 (commonly the concentration that inhibits the measured activity by half) against Orai1 [1] was around 0.2 µM. In turn, DPB163-AE registered an IC50 against Orai1 [2] of around 0.6 µM.
